This is an account of results in EP1997826A2, “Synthetic ligands for immunoglobulins and pharmaceutical compositions containing them” (Tecnogen S.p.A., priority 2007, dated 2008).

In this test the test system is RBL 2H3 cells. The test is described as follows: assay for degranulation of the RBL 2H3 cells (release of β-hexose-aminidase induced by anti-DNP IgE and DNP-BSA antigen). Type of test: cell-based, rat. An excerpt:
The RBL 2H3 cell line, rat basophils that express the receptor with high affinity for the immunoglobulins of class E (FcεRl), is widely used for investigating allergic reactions, because in this cell line the chemical mediators of inflammation are released as a result of allergen specific-IgE-FcεRI binding.
Release of the enzyme β-hexose-aminidase, which is present together with histamine in the granules of mast cells and basophils, can be used as an index of cellular degranulation (Tanaka et al., 1991, Chem. Pharm. Bull, 39, 2072-2076; McCloskey et al., 1988, Proc. Natl. Acad. Sci., USA, 85, 7260-7264).
The activity of the enzyme β-hexose-aminidase, released by the stimulated RBL 2H3 cells, was determined by the method described by Yamanishi et al., 1995, Jour. Biotech. Biochem., 59 (7), 1272-1275, which envisages measurement of the enzymatic activity by measuring the absorbance of the product p-nitrophenol generated by the synthetic substrate p-nitrophenyl-N-acetyl-β-D-glucosamide. 1x10^5 RBL 2H3 cells, trypsinized from plates at confluence, were resuspended in a volume of 80 µl of the culture medium (MEM + 10% inactivated fetal bovine serum) and distributed in each well of the 96-well plates (Costar). After 24 hours, 20 µl of medium containing anti-2,4-dinitrophenol monoclonal IgEs (DNP, Sigma, Cat. No. D-8406) was added to each well.
The microplates were incubated at 37°C for one hour and then washed three times with 100 µl of HBS buffer solution (10 mM HEPES, 135 mM NaCl, 5 mM KCI, 1 mM CaCl2, 0.5 mM MgCl2, 5.6 mM glucose, 0.1 % BSA, pH 7.4). After the washings, 100 µl of HBS containing the 2,4-dinitrophenol antigen conjugated to BSA (Sigma, Cat. No. A-6661) was added. As a control, 100 µl of HBS containing 1% Triton X-100 was added to some wells to determine the total amount of enzyme contained in the cellular granules.
After further incubation at 37°C for two hours, 30 µl of cellular supernatant or of cellular lysate was transferred to a new microplate, to which 50 µl of sodium citrate buffer at pH 4.5, containing 4 mM p-nitrophenyl-N-acetyl-β-D-glucosaminide (Sigma, Cat. No. N9376), a specific substrate for the enzyme β-hexose-aminidase, had been added beforehand. After incubation for two hours at 37°C, the reaction was stopped by adding 100 µl of glycine solution 0.2 M, pH 10.7. The enzymatic activity was determined by measuring the absorbance at 405 nm with a Microplate Reader Model 3550 EIA (Bio-Rad).
In preliminary experiments the immunoglobulins E and the antigen were added at various concentrations in order to determine the optimum concentrations for induction of the reaction of enzymatic release. The conditions identified experimentally correspond to 0.5 µg/ml of IgE and 0.05 µg/ml of antigen DNP conjugated to BSA.
To verify the capacity of the peptides of formula IB and of comparative peptides for inhibiting the degranulation of the RBL 2H3 cells, the peptides were added in the assay together with the antigen at concentrations between 0.1 and 500 µg/ml.

With “(H-L-Cys(p-MeOBzl)-L-Arg-L-Thr-L-Tyr)2-Lys-Gly-Lys-OH [ID]”, the “inhibition of degranulation, result in words compared with peptide IB” value is reported as “Results similar to the results obtained with peptide IB”.
